Measured values as given in US20150284342A1, “BIS(FLUOROALKYL)-1,4-BENZODIAZEPINONE COMPOUNDS” (BRISTOL-MYERS SQUIBB COMPANY, priority 2011, published 2015).

Key:
[1] = test system: human ovarian teratocarcinoma xenograft PA-1; assay: Human tumor xenograft model in mice: PA-1 (combination with carboplatin); assay type: in vivo; conditions: carboplatin weekly, 90 mg/kg/adm
[2] = test system: ALL-SIL T-cell lymphoblastic leukemia; assay: Human tumor xenograft model in mice: ALL-SIL (combination with dasatinib); assay type: in vivo
[3] = test system: human T-ALL leukemia xenografts HPB-ALL; assay: Human tumor xenograft model in mice: HPB-ALL (combination with dexamethasone); assay type: in vivo; conditions: for Tumor Growth Delay / Tumor Growth Delay (LCK): target tumor size 3000 mg
[4] = test system: Notch 3; assay: Notch-CBF1 Transactivation Assay (Notch 3); assay type: cell-based; conditions: read-out: Notch 3 (IC50), HeLa cells, luciferase, rounded to 2 digits
Source text: (§1) Table 12 denotes respective DNA quantity for the transfections.
(§2) Duplicates were used for each sample.

[5] = test system: human breast carcinoma cell line MDA-MB-157; assay: Human tumor xenograft model in mice: MDA-MB-157; assay type: in vivo; conditions: 24 mg/kg, oral, QD × 15, 10 Day-on-2 Day-off
[6] = test system: TALL1 Human T-cell acute lymphoblastic leukemia; assay: Human tumor xenograft model in mice: TALL1; assay type: in vivo; conditions: 24 mg/kg, oral, QD × 15, 10 Day-on-2 Day-off
[7] = High Throughput (HT) Metabolic Stability Panel, human liver microsomes; conditions: 0.5 μM compound, human liver microsomes, 10 min incubation
Procedure: (§3) Each compound was tested in duplicate.

[8] = test system: MDA-MB-468 Human Breast Carcinoma; assay: Human tumor xenograft model in mice: MDA-MB-468 (combination with paclitaxel); assay type: in vivo
[9] = test system: human tumor xenografts; assay: Human Tumor Xenograft Models in Mice (various tumors); assay type: in vivo; conditions: oral administration (PO)
[10] = High Throughput (HT) Metabolic Stability Panel, mouse liver microsomes; conditions: 0.5 μM compound, mouse liver microsomes, 10 min incubation
Procedure: as §3

[11] = test system: Notch 1; assay: Notch-CBF1 Transactivation Assay (Notch 1); assay type: cell-based; conditions: read-out: Notch 1 (IC50), HeLa cells, luciferase, rounded to 2 digits
Source text: as §1, §2

[12] = test system: ER receptor positive human breast carcinoma xenograft MCF7; assay: Human tumor xenograft model in mice: MCF7 (combination with Tamoxifen); assay type: in vivo
[13] = Dasatinib 10 mg/kg PO, QD x 49, target tumor size 1000 mg
[14] = Dexamethasone 3.75 mg/kg IP, QD x 14
[15] = Paclitaxel 12 mg/kg IV, Q7D x 6
[16] = Paclitaxel 12 mg/kg IV, Q7D x 6, target tumor size 500 mg
[17] = Tamoxifen 20 mg/kg IP, Q2D × 10

Question: For `N.N.O=C([O-])C1(C(=O)[O-])CCC1.[Pt+2]` [Carboplatin, carboplatin, reference compound], which “antitumor effect (LCK)” value [1] is on record?
Answer: 2.1 LCK

Question: With `Cc1nc(Nc2ncc(C(=O)Nc3c(C)cccc3Cl)s2)cc(N2CCN(CCO)CC2)n1` [Dasatinib, dasatinib, reference compound] as the molecule, how does the “CR (%)” value ([2]; Dasatinib 10 mg/kg PO, QD x 49) read?
Answer: 0%

Question: And the “PR (%)” value ([2]; Dasatinib 10 mg/kg PO, QD x 49)?
Answer: 0%

Question: And the “Tumor Growth Delay” value [2, 13]?
Answer: 30.2 days

Question: And the “Tumor Growth Delay (LCK)” value [2, 13]?
Answer: 1.7 LCK

Question: And the “antitumor effect (LCK)” value ([2]; dasatinib alone, 10 mg/kg/adm, QD×49, PO)?
Answer: 1.7 LCK

Question: Which “CR (%)” value [3, 14] does the source give for `C[C@@H]1C[C@H]2[C@@H]3CCC4=CC(=O)C=C[C@]4(C)[C@@]3(F)[C@@H](O)C[C@]2(C)[C@@]1(O)C(=O)CO` [Dexamethasone, dexamethasone, reference compound] here?
Answer: 0%

Question: And the “PR (%)” value [3, 14]?
Answer: 0%

Question: What about the “Tumor Growth Delay” value [3, 14] of the same molecule?
Answer: 5.6 days

Question: What about the “Tumor Growth Delay (LCK)” value [3, 14] of the same molecule?
Answer: 0.6 LCK

Question: And the “Tumor Growth Delay” value ([3]; Dexamethasone […] IP, QD x 14)?
Answer: 5.8 days

Question: And the “Tumor Growth Delay (LCK)” value ([3]; Dexamethasone […] IP, QD x 14)?
Answer: 0.7 LCK

Question: And the “antitumor efficacy (LCK)” value ([3]; dexamethasone as a single agent at its MTD of 7.5 mpk)?
Answer: 0.7 LCK

Question: With `NC(=O)[C@@H](CCC(F)(F)F)[C@@H](CCC(F)(F)F)C(=O)N[C@H]1N=C(c2ccccc2)c2ccccc2NC1=O` [Example 2, (2R,3S)—N-((3S)-2-Oxo-5-phenyl-2,3-dihydro-1H-1,4-benzodiazepin-3-yl)-2,3-bis(3,3,3-trifluoropropyl)succinamide] as the molecule, how does the IC50 [4] read?
Answer: 3.3 nM

Question: What about the “Antitumor Activity MDA-MB-157 (% TGI)” value [5] of the same molecule?
Answer: 85 % TGI

Question: What about the “Antitumor Activity TALL1 (LCK)” value [6] of the same molecule?
Answer: 2.4 LCK

Question: What about the “0.5 μM HLM (% Remaining)” value [7] of the same molecule?
Answer: 88%

Question: And the “Antitumor Activity MDA-MB-468 (% TGI)” value ([8]; single agent, 24 mg/kg, oral, QD × 15, 10 Day-on-2 Day-off)?
Answer: 87 % TGI

Question: And the antitumor activity [9]?
Answer: showed antitumor activity

Question: What about the “0.5 μM MsLM (% Remaining)” value [10] of the same molecule?
Answer: 86%

Question: And the IC50 [11]?
Answer: 1.7 nM

Question: Which results are given for `NC(=O)[C@@H](CCC(F)(F)F)[C@@H](CCC(F)(F)F)C(=O)N[C@H]1N=C(c2ccccc2)c2ccc(Cl)c(Cl)c2NC1=O` [Example 16, (2R,3S)—N-((3S)-8,9-dichloro-2-oxo-5-phenyl-2,3-dihydro-1H-1,4-benzodiazepin-3-yl)-2,3-bis(3,3,3-trifluoropropyl)succinamide]?
Answer: IC50 [4]: 6.4 nM; 0.5 μM HLM (% Remaining) [7]: 80%; 0.5 μM MsLM (% Remaining) [10]: 91%; IC50 [11]: 4.2 nM

Question: With `NC(=O)[C@@H](CCC(F)(F)F)[C@@H](CCC(F)(F)F)C(=O)N[C@H]1N=C(c2ccccc2)c2cccc(F)c2NC1=O` [Example 17, (2R,3S)—N-((3S)-9-fluoro-2-oxo-5-phenyl-2,3-dihydro-1H-1,4-benzodiazepin-3-yl)-2,3-bis(3,3,3-trifluoropropyl)succinamide] as the molecule, how does the IC50 [4] read?
Answer: 7.1 nM

Question: What about the “0.5 μM HLM (% Remaining)” value [7] of the same molecule?
Answer: 100%

Question: What about the “0.5 μM MsLM (% Remaining)” value [10] of the same molecule?
Answer: 96%

Question: And the IC50 [11]?
Answer: 3.6 nM

Question: Which IC50 [4] does the source give for `NC(=O)[C@@H](CCC(F)(F)F)[C@@H](CCC(F)(F)F)C(=O)N[C@H]1N=C(c2ccccc2)c2cccc(Cl)c2NC1=O` [Example 18, (2R,3S)—N-((3S)-9-chloro-2-oxo-5-phenyl-2,3-dihydro-1H-1,4-benzodiazepin-3-yl)-2,3-bis(3,3,3-trifluoropropyl)succinamide] here?
Answer: 2.3 nM

Question: What about the “0.5 μM HLM (% Remaining)” value [7] of the same molecule?
Answer: 100%

Question: And the “0.5 μM MsLM (% Remaining)” value [10]?
Answer: 100%

Question: What about the IC50 [11] of the same molecule?
Answer: 0.53 nM

Question: Which IC50 [4] does the source give for `NC(=O)[C@@H](CCCC(F)(F)F)[C@@H](CCC(F)(F)F)C(=O)N[C@H]1N=C(c2ccccc2)c2ccccc2NC1=O` [Example 19, (2R,3S)—N-((3S)-2-Oxo-5-phenyl-2,3-dihydro-1H-1,4-benzodiazepin-3-yl)-3-(4,4,4-trifluorobutyl)-2-(3,3,3-trifluoropropyl)succinamide] here?
Answer: 3.8 nM

Question: What about the “0.5 μM HLM (% Remaining)” value [7] of the same molecule?
Answer: 96%

Question: What about the “0.5 μM MsLM (% Remaining)” value [10] of the same molecule?
Answer: 97%

Question: And the IC50 [11]?
Answer: 1.3 nM

Question: With `COc1ccc2c(c1)NC(=O)[C@@H](NC(=O)[C@H](CCC(F)(F)F)[C@H](CCCC(F)(F)F)C(N)=O)N=C2c1ccccc1` [Example 20, (2R,3S)—N1-((3S)-8-Methoxy-2-oxo-5-phenyl-2,3-dihydro-1H-1,4-benzodiazepin-3-yl)-3-(4,4,4-trifluorobutyl)-2-(3,3,3-trifluoropropyl)succinamide] as the molecule, how does the IC50 [4] read?
Answer: 4.2 nM

Question: And the “0.5 μM HLM (% Remaining)” value [7]?
Answer: 100%

Question: What about the “0.5 μM MsLM (% Remaining)” value [10] of the same molecule?
Answer: 100%

Question: And the IC50 [11]?
Answer: 2.9 nM

Question: Which IC50 [4] does the source give for `COCCNc1cccc2c1NC(=O)[C@@H](NC(=O)[C@H](CCC(F)(F)F)[C@H](CCC(F)(F)F)C(N)=O)N=C2c1ccccc1` [Example 21, (2R,3S)—N-((3S)-9-((2-Methoxyethyl)amino)-2-oxo-5-phenyl-2,3-dihydro-1H-1,4-benzodiazepin-3-yl)-2,3-bis(3,3,3-trifluoropropyl)succinamide] here?
Answer: 4.2 nM

Question: What about the “0.5 μM HLM (% Remaining)” value [7] of the same molecule?
Answer: 98%

Question: What about the “0.5 μM MsLM (% Remaining)” value [10] of the same molecule?
Answer: 82%

Question: What about the IC50 [11] of the same molecule?
Answer: 1.5 nM

Question: With `CC(=O)O[C@H]1C(=O)[C@@]2(C)[C@H]([C@H](OC(=O)c3ccccc3)[C@]3(O)C[C@H](OC(=O)[C@H](O)[C@@H](NC(=O)c4ccccc4)c4ccccc4)C(C)=C1C3(C)C)[C@]1(OC(C)=O)CO[C@@H]1C[C@@H]2O` [Paclitaxel, paclitaxel, reference compound] as the molecule, how does the “CR (%)” value [8, 15] read?
Answer: 0%

Question: What about the “PR (%)” value [8, 15] of the same molecule?
Answer: 0%

Question: And the “Tumor Growth Delay” value [8, 16]?
Answer: 7.8 days

Question: What about the “Tumor Growth Delay (LCK)” value [8, 16] of the same molecule?
Answer: 0.5 LCK

Question: And the “antitumor effect (LCK)” value ([8]; paclitaxel weekly, 12 mg/kg/adm)?
Answer: 0.5 LCK

Question: With `CC/C(=C(\c1ccccc1)c1ccc(OCCN(C)C)cc1)c1ccccc1` [Tamoxifen, reference compound] as the molecule, how does the “CR (%)” value [12, 17] read?
Answer: 0%

Question: What about the “PR (%)” value [12, 17] of the same molecule?
Answer: 0%

Question: And the “Tumor Growth Inhibition TGI” value ([12]; Tamoxifen 20 mg/kg IP, Q2D × 10, target tumor size 500 mg)?
Answer: 78%

Question: What about the “% TGI” value ([12]; Tamoxifen at MTD dose of 20 mg/kg/adm, IP, Q2 DX12) of the same molecule?
Answer: 78%

Question: And the “CR or PR” value ([12]; single agent)?
Answer: no CR or PR
